Source: patent publication US20250230193A1, “CYCLIC COMPOUND HAVING SELECTIVE KRAS INHIBITORY EFFECT ON HRAS AND NRAS” (CHUGAI SEIYAKU KABUSHIKI KAISHA, priority 2022, published 2025)
*1 amine or outer side, *2 acyl side, *3 side chain or, on linkers, in order; H or OH if unused. Where a SMILES comes first, the peptide text is derived from it. Bridges are numbered along the chain shown (N, C = ends). [ ]: non-standard residue; d: D form. The star is where a group is joined. hPhe(3,5-F2-4-CF3) = N[C@@H](CCc1cc(F)c(C(F)(F)F)c(F)c1)C(=O)O; hPhe(3-Cl-4-CF3) = N[C@@H](CCc1ccc(C(F)(F)F)c(Cl)c1)C(=O)O; X47 = O=C([C@H](Cc1ccc(C(F)(F)F)cc1)N(CCCF)[*:1])[*:2]; NPrPhe(4-CF3) = CCCN[C@@H](Cc1ccc(C(F)(F)F)cc1)C(=O)O; NMeGly(cPent) = CN[C@H](C(=O)O)C1CCCC1; NMeD = CN[C@@H](CC(=O)O)C(=O)O; Ac4c(3-oxa) = NC1(C(=O)O)COC1; NMeL = CN[C@@H](CC(C)C)C(=O)O; Oxazolidin(3-yl) = C1CN(*)CO1; Morpholide = C1CN(*)CCO1; Ac5c = NC1(C(=O)O)CCCC1; Sar = CNCC(=O)O

Key:
[1] = target: GDP-bound NRAS wild-type protein (Homo sapiens, UniProt P01111); experiment: Binding to NRAS by surface plasmon resonance (SPR), Single Cycle Kinetics; settings: for NRAS/KRAS (ratio of KD value with respect to NRAS to KD value with respect to KRAS): GDP-bound NRAS wild-type vs GDP-bound KRAS wild-type
Sequence of GDP-bound NRAS wild-type protein (P01111 whole entry): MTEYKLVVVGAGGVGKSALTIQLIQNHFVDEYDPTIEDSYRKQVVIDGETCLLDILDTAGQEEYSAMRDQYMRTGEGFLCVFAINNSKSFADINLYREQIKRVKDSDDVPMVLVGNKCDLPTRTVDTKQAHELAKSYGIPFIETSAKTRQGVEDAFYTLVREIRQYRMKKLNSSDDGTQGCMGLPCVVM

[2] = target: GDP-bound HRAS wild-type protein (Homo sapiens, UniProt P01112); experiment: Binding to HRAS by surface plasmon resonance (SPR), Single Cycle Kinetics; settings: for HRAS/KRAS (ratio of KD value with respect to HRAS to KD value with respect to KRAS): GDP-bound HRAS wild-type vs GDP-bound KRAS wild-type
Sequence of GDP-bound HRAS wild-type protein (P01112 whole entry): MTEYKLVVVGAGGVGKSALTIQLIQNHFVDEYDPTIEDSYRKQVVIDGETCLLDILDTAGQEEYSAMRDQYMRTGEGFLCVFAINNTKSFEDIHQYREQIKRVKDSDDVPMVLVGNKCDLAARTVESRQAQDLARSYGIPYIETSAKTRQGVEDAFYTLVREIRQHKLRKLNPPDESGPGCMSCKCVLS

`CCO[C@@H]1C[C@H]2C(=O)NC3(CCC3)C(=O)N(C)[C@@H](C3CCCC3)C(=O)N(C)[C@H](C(=O)N3CCOCC3)CC(=O)N(C)[C@@H](Cc3ccsc3)C(=O)N[C@@H]([C@@H](C)CC)C(=O)N(C)CC(=O)N(C)[C@H]3CCCCCN(C3=O)[C@@H](Cc3ccc(F)cc3)C(=O)N(C)CC(=O)N[C@@H](CCc3cc(F)c(C(F)(F)F)c(F)c3)C(=O)N2C1` [PP1184] was tested, and the “NRAS/KRAS (ratio of KD value with respect to NRAS to KD value with respect to KRAS)” value ([1]; KD ratio, SPR) was “B (a compound having 3 or more and less than 10 is denoted as B)” and the “HRAS/KRAS (ratio of KD value with respect to HRAS to KD value with respect to KRAS)” value ([2]; KD ratio, SPR) was “B (a compound having 3 or more and less than 10 is denoted as B)”.

`CCO[C@@H]1C[C@H]2C(=O)NC3(CCC3)C(=O)N(C)[C@@H](C3CCCC3)C(=O)N(C)[C@H](C(=O)N(C)C)CC(=O)N(C)[C@@H](CC3CCCC3)C(=O)N[C@@H]([C@@H](C)CC)C(=O)N(C)CC(=O)N(C)[C@H]3CCCCCN(C3=O)[C@@H](Cc3ccc(C(F)(F)F)cc3)C(=O)N(C)CC(=O)N[C@@H](CCc3cc(F)c(C(F)(F)F)c(F)c3)C(=O)N2C1` [PP0670] was tested, and the “NRAS/KRAS (ratio of KD value with respect to GDP-bound NRAS wild-type protein to KD value with respect to KRAS)” value ([1]; KD ratio NRAS/KRAS, SPR) was “B (a compound having 3 or more and less than 10 is denoted as B)” and the “HRAS/KRAS (ratio of KD value with respect to GDP-bound HRAS wild-type protein to KD value with respect to KRAS)” value ([2]; KD ratio HRAS/KRAS, SPR) was “B (a compound having 3 or more and less than 10 is denoted as B)”.

`CCC[C@H]1C(=O)N[C@@H]([C@@H](C)CC)C(=O)N(C)CC(=O)N(C)[C@H]2C/C=C\CCN(C2=O)[C@@H](Cc2ccc(C(F)(F)F)cc2)C(=O)N(C)CC(=O)N[C@@H](CCc2cc(F)c(C(F)(F)F)c(F)c2)C(=O)N2C[C@H](OCC)C[C@H]2C(=O)N(C)C2(CCC2)C(=O)N(C)[C@@H](C2CCCC2)C(=O)N(C)[C@H](C(=O)N2CCCC2)CC(=O)N1C` [PP3120, (2S,8S,12R,14S,20S,23S,27S,30S,36S,38Z)-20-cyclopentyl-8-[2-[3,5-difluoro-4-(trifluoromethyl)phenyl]ethyl]-12-ethoxy-4,16,19,22,26,32,35-heptamethyl-30-[(1S)-1-methylpropyl]-27-propyl-23-(pyrrolidine-1-carbonyl)-2-[[4-(trifluoromethyl)phenyl]methyl]spiro[1,4,7,10,16,19,22,26,29,32,35-undecazatricyclo[34.5.1.0^10,14]dotetracont-38-ene-17,1′-cyclobutane]-3,6,9,15,18,21,25,28,31,34,42-undecone] was tested, and the “NRAS/KRAS (ratio of KD value with respect to GDP-bound NRAS wild-type protein to KD value with respect to KRAS)” value ([1]; KD ratio NRAS/KRAS, SPR, GDP-bound wild-type proteins) was “AA (a compound having 20 or more is denoted as AA)” and the “HRAS/KRAS (ratio of KD value with respect to GDP-bound HRAS wild-type protein to KD value with respect to KRAS)” value ([2]; KD ratio HRAS/KRAS, SPR, GDP-bound wild-type proteins) was “A (a compound having 10 or more and less than 20 is denoted as A)”.

In the case of `CC[C@H](C)[C@@H]1NC(=O)[C@H](CC(C)C)N(C)C(=O)C[C@@H](C(=O)N2CCOCC2)N(C)C(=O)[C@H](C2CCCC2)N(C)C(=O)C2(CCCC2)NC(=O)[C@@H]2CCCN2C(=O)[C@H](CCc2ccc(C(F)(F)F)c(Cl)c2)NC(=O)CN(C)C(=O)[C@H](Cc2ccc(C(F)(F)F)cc2)N(CCCF)C(=O)CN(C)C(=O)CN(C)C1=O` [PP0524] ([NMeL]I[Sar][Sar][X47][Sar][hPhe(3-Cl-4-CF3)]P[Ac5c][NMeGly(cPent)][NMeD]-Morpholide; lactam N-11), the “NRAS/KRAS (ratio of KD value with respect to GDP-bound NRAS wild-type protein to KD value with respect to KRAS)” value ([1]; KD ratio NRAS/KRAS, SPR) is reported as “B (a compound having 3 or more and less than 10 is denoted as B)” and the “HRAS/KRAS (ratio of KD value with respect to GDP-bound HRAS wild-type protein to KD value with respect to KRAS)” value ([2]; KD ratio HRAS/KRAS, SPR) is reported as “C (A compound having a KD ratio of 0.1 or more and less than 3 is denoted as C)”.

In the case of `CC[C@H](C)[C@@H]1NC(=O)[C@H](CC(C)C)N(C)C(=O)C[C@@H](C(=O)N2CCOCC2)N(C)C(=O)[C@H](C2CCCC2)N(C)C(=O)C2(CCC2)NC(=O)[C@@H]2CC(F)(F)CN2C(=O)[C@H](CCc2cc(F)c(C(F)(F)F)c(F)c2)NC(=O)CN(C)C(=O)[C@H](Cc2ccc(C(F)(F)F)cc2)N2CCCC[C@@H](C2=O)N(C)C(=O)CN(C)C1=O` [PP0575], the “NRAS/KRAS (ratio of KD value with respect to GDP-bound NRAS wild-type protein to KD value with respect to KRAS)” value ([1]; KD ratio NRAS/KRAS, SPR) is reported as “B (a compound having 3 or more and less than 10 is denoted as B)” and the “HRAS/KRAS (ratio of KD value with respect to GDP-bound HRAS wild-type protein to KD value with respect to KRAS)” value ([2]; KD ratio HRAS/KRAS, SPR) is reported as “B (a compound having 3 or more and less than 10 is denoted as B)”.

With `CCCN1C(=O)CN(C)C(=O)CN(C)C(=O)[C@H]([C@@H](C)CC)NC(=O)[C@H](CC(C)C)N(C)C(=O)C[C@@H](C(=O)N2CCOC2)N(C)C(=O)[C@H](C2CCCC2)N(C)C(=O)C2(CCCC2)NC(=O)[C@@H]2CCCN2C(=O)[C@H](CCc2ccc(C(F)(F)F)c(Cl)c2)NC(=O)CN(C)C(=O)[C@@H]1Cc1ccc(C(F)(F)F)cc1` [PP0174] ([NMeL]I[Sar][Sar][NPrPhe(4-CF3)][Sar][hPhe(3-Cl-4-CF3)]P[Ac5c][NMeGly(cPent)][NMeD]-{Oxazolidin(3-yl)}; lactam N-11) the “NRAS/KRAS (ratio of KD for GDP-bound NRAS wild-type to KD for KRAS)” value ([1]; KD ratio NRAS/KRAS, SPR) was “B (a compound having 3 or more and less than 10 is denoted as B)” and the “HRAS/KRAS (ratio of KD for GDP-bound HRAS wild-type to KD for KRAS)” value ([2]; KD ratio HRAS/KRAS, SPR) was “B (a compound having 3 or more and less than 10 is denoted as B)”.

`CCO[C@@H]1C[C@H]2C(=O)NC3(CCC3)C(=O)N(C)[C@@H](C3CCCC3)C(=O)N(C)[C@H](C(=O)N3CCOCC3)CC(=O)N(C)[C@@H](COC)C(=O)N[C@@H]([C@@H](C)CC)C(=O)N(C)CC(=O)N(C)[C@H]3CCCCCN(C3=O)[C@@H](Cc3ccc(C(F)(F)F)cc3)C(=O)N(C)CC(=O)N[C@@H](CCc3ccc(C)cc3)C(=O)N2C1` [PP0850] was tested, and the “NRAS/KRAS (ratio of KD value with respect to NRAS to KD value with respect to KRAS)” value ([1]; KD ratio, SPR) was “B (a compound having 3 or more and less than 10 is denoted as B)” and the “HRAS/KRAS (ratio of KD value with respect to HRAS to KD value with respect to KRAS)” value ([2]; KD ratio, SPR) was “B (a compound having 3 or more and less than 10 is denoted as B)”.

In the case of `CC[C@H](C)[C@@H]1NC(=O)[C@@H]2CCC/C=C/c3ccc(cc3)C[C@@H](C(=O)N(C)CC(=O)N[C@@H](CCc3ccc(Cl)c(Cl)c3)C(=O)N3CCC[C@H]3C(=O)NC3(CC(C)(C)C3)C(=O)N(C)[C@@H](C3CCCC3)C(=O)N(C)[C@H](C(=O)N3CCCC3)CC(=O)N2C)N2CC/C=C\C[C@@H](C2=O)N(C)C(=O)CN(C)C1=O` [PP2602], the “NRAS/KRAS (ratio of KD value with respect to GDP-bound NRAS wild-type protein to KD value with respect to KRAS)” value ([1]; KD ratio NRAS/KRAS, class symbols) is reported as “A (a compound having 10 or more and less than 20 is denoted as A)” and the “HRAS/KRAS (ratio of KD value with respect to GDP-bound HRAS wild-type protein to KD value with respect to KRAS)” value ([2]; KD ratio HRAS/KRAS, class symbols) is reported as “A (a compound having 10 or more and less than 20 is denoted as A)”.

In the case of `CCCN1C(=O)CN(C)C(=O)CN(C)C(=O)[C@H]([C@@H](C)CC)NC(=O)[C@H](CC(C)C)N(C)C(=O)C[C@@H](C(=O)N2CCOCC2)N(C)C(=O)[C@H](C2CCCC2)N(C)C(=O)C2(COC2)NC(=O)[C@@H]2CCCN2C(=O)[C@H](CCc2cc(F)c(C(F)(F)F)c(F)c2)NC(=O)CN(C)C(=O)[C@@H]1Cc1ccc(C(F)(F)F)cc1` [PP0765] ([NMeL]I[Sar][Sar][NPrPhe(4-CF3)][Sar][hPhe(3,5-F2-4-CF3)]P[Ac4c(3-oxa)][NMeGly(cPent)][NMeD]-Morpholide; lactam N-11), the “NRAS/KRAS (ratio of KD value with respect to GDP-bound NRAS wild-type protein to KD value with respect to KRAS)” value ([1]; KD ratio NRAS/KRAS, SPR) is reported as “B (a compound having 3 or more and less than 10 is denoted as B)” and the “HRAS/KRAS (ratio of KD value with respect to GDP-bound HRAS wild-type protein to KD value with respect to KRAS)” value ([2]; KD ratio HRAS/KRAS, SPR) is reported as “C (A compound having a KD ratio of 0.1 or more and less than 3 is denoted as C)”.

`CCO[C@@H]1C[C@H]2C(=O)NC3(CC(C)(C)C3)C(=O)N(C)[C@@H](C3CCCC3)C(=O)N(C)[C@H](C(=O)N(C)CC)CC(=O)N(C)[C@H]3CCCCCc4ccc(cc4)C[C@@H](C(=O)N(C)CC(=O)N[C@@H](CCc4ccc(C(F)(F)F)c(OC)c4)C(=O)N2C1)N1CC/C=C\C[C@@H](C1=O)N(C)C(=O)CN(C)C(=O)[C@H]([C@@H](C)CC)NC3=O` [PP2259] was tested, and the “NRAS/KRAS (ratio of KD value with respect to NRAS to KD value with respect to KRAS)” value ([1]; SPR) was “A (a compound having 10 or more and less than 20 is denoted as A)” and the “HRAS/KRAS (ratio of KD value with respect to HRAS to KD value with respect to KRAS)” value ([2]; SPR) was “B (a compound having 3 or more and less than 10 is denoted as B)”.
